Measured values as given in patent publication US20230167467A1, “METHODS AND COMPOSITIONS FOR THE PRODUCTION OF ISOBUTENE” (University of Alaska Anchorage, priority 2020, published 2023).

Columns and labels:
[1] = test system: Engineered strains of E. coli; assay type: cell-based
[2] = purified MVD on 3-HIV; cited from earlier work
[3] = after solvent exposure, vs positive control

For CCC(C)CC [3-methylpentane], the “expression of acid resistance genes (gad, adi families)” value [1] was “downregulated”, the “expression of chaperone proteins groLS, spy, and dnaJK” value [1] was “highly upregulated” and the “expression of dihydroxyacetone kinase genes dhaKLM” value [1] was “upregulated”. The “expression of flagellar protein synthesis and assembly genes” value [1] was “downregulated”, the “expression of gadE and adiY” value [1] was “significantly downregulated” and the “expression of galactitol metabolism genes gatABD” value [1] was “upregulated”. For the same molecule, the “expression of glpABC (glycerol to glycerone phosphate)” value [1] was “upregulated”, the “expression of heat shock proteins and chaperones hslJORUV” value [1] was “strongest increases” and the “expression of ibpAB and clpAB (protein protection and repair)” value [1] was “strongest increases”. The “expression of marABC (multiple antibiotic resistance)” value [1] was “upregulated”, the “expression of nitrate reductase genes narGHJKP” value [1] was “upregulated” and the “expression of phage shock genes pspABCDE” value [1] was “highly upregulated”. The “change in expression of gene adiA” value [1, 3] was −2.19 ± 0.86, the “change in expression of gene adiC” value [1, 3] was −1.60 ± 1.02 and the “change in expression of gene adiY” value [1, 3] was −2.88 ± 0.66. For the same molecule, the “change in expression of gene bhsA” value [1, 3] was 2.98 ± 0.60, the “change in expression of gene bssR” value [1, 3] was 1.81 ± 0.44 and the “change in expression of gene bssS” value [1, 3] was 5.42 ± 0.84. For the same molecule, the “change in expression of gene clpA” value [1, 3] was 2.69 ± 0.63, the “change in expression of gene clpB” value [1, 3] was 5.30 ± 0.69 and the “change in expression of gene clpP” value [1, 3] was 1.74 ± 0.59. The “change in expression of gene coaA” value [1, 3] was −1.35 ± 0.88, the “change in expression of gene coaD” value [1, 3] was 1.13 ± 0.90 and the “change in expression of gene cspA” value [1, 3] was −4.58 ± 0.58. The “change in expression of gene cspB” value [1, 3] was −4.38 ± 1.31, the “change in expression of gene cspC” value [1, 3] was −2.37 ± 0.90 and the “change in expression of gene cspD” value [1, 3] was 2.53 ± 0.57. For the same molecule, the “change in expression of gene cspE” value [1, 3] was −0.36 ± 0.63, the “change in expression of gene cspF” value [1, 3] was −3.22 ± 1.04 and the “change in expression of gene dhaK” value [1, 3] was 4.32 ± 0.58. For the same molecule, the “change in expression of gene dhaL” value [1, 3] was 3.43 ± 0.62, the “change in expression of gene dnaJ” value [1, 3] was 5.07 ± 0.69 and the “change in expression of gene dnaK” value [1, 3] was 4.55 ± 0.66. For the same molecule, the “change in expression of gene fabA” value [1, 3] was −0.74 ± 0.75, the “change in expression of gene fabB” value [1, 3] was 2.87 ± 0.66 and the “change in expression of gene fabD” value [1, 3] was −0.97 ± 0.52. The “change in expression of gene flgA” value [1, 3] was −1.37 ± 1.53, the “change in expression of gene flgB” value [1, 3] was −3.25 ± 1.50 and the “change in expression of gene flgC” value [1, 3] was −4.33 ± 1.93. The “change in expression of gene flgD” value [1, 3] was −3.56 ± 1.87, the “change in expression of gene flgE” value [1, 3] was −2.72 ± 1.17 and the “change in expression of gene flgF” value [1, 3] was −2.66 ± 1.57. For the same molecule, the “change in expression of gene flgG” value [1, 3] was −3.06 ± 1.48, the “change in expression of gene flgH” value [1, 3] was −2.28 ± 1.70 and the “change in expression of gene gabD” value [1, 3] was 0.24 ± 1.31. The “change in expression of gene gabP” value [1, 3] was 1.14 ± 1.28, the “change in expression of gene gabT” value [1, 3] was 0.62 ± 1.27 and the “change in expression of gene gadA” value [1, 3] was −1.66 ± 0.69. The “change in expression of gene gadB” value [1, 3] was −1.26 ± 0.80, the “change in expression of gene gadC” value [1, 3] was −0.31 ± 0.80 and the “change in expression of gene gadE” value [1, 3] was −2.58 ± 0.60. For the same molecule, the “change in expression of gene gadW” value [1, 3] was −2.78 ± 0.95, the “change in expression of gene gadX” value [1, 3] was −2.92 ± 0.57 and the “change in expression of gene gadY” value [1, 3] was −4.93 ± 0.81. The “change in expression of gene glpA” value [1, 3] was 8.12 ± 0.87, the “change in expression of gene glpB” value [1, 3] was 5.89 ± 0.63 and the “change in expression of gene glpC” value [1, 3] was 6.69 ± 0.79. For the same molecule, the “change in expression of gene groL” value [1, 3] was 4.27 ± 0.57, the “change in expression of gene groS” value [1, 3] was 4.18 ± 0.50 and the “change in expression of gene hchA” value [1, 3] was 1.65 ± 0.60. The “change in expression of gene hslJ” value [1, 3] was 2.40 ± 0.65, the “change in expression of gene hslO” value [1, 3] was 3.37 ± 0.64 and the “change in expression of gene hslR” value [1, 3] was 3.53 ± 0.65. The “change in expression of gene hslU” value [1, 3] was 3.65 ± 0.55, the “change in expression of gene hslV” value [1, 3] was 3.32 ± 0.61 and the “change in expression of gene ibpA” value [1, 3] was 8.01 ± 1.21. The “change in expression of gene ibpB” value [1, 3] was 9.01 ± 1.50, the “change in expression of gene lhgO” value [1, 3] was 1.21 ± 1.64 and the “change in expression of gene lipA” value [1, 3] was 0.26 ± 0.60. For the same molecule, the “change in expression of gene lipB” value [1, 3] was 0.71 ± 0.63, the “change in expression of gene narG” value [1, 3] was 4.24 ± 0.65 and the “change in expression of gene narH” value [1, 3] was 3.41 ± 0.61. The “change in expression of gene narI” value [1, 3] was 2.28 ± 0.92, the “change in expression of gene narJ” value [1, 3] was 2.34 ± 0.68 and the “change in expression of gene narK” value [1, 3] was 2.75 ± 0.84. The “change in expression of gene potA” value [1, 3] was −2.43 ± 0.80, the “change in expression of gene potB” value [1, 3] was −0.51 ± 1.28 and the “change in expression of gene potC” value [1, 3] was −0.27 ± 1.18. For the same molecule, the “change in expression of gene pspA” value [1, 3] was 9.23 ± 0.55, the “change in expression of gene pspB” value [1, 3] was 7.09 ± 0.68 and the “change in expression of gene rpoA” value [1, 3] was 0.54 ± 0.44. The “change in expression of gene rpoB” value [1, 3] was 0.33 ± 0.40, the “change in expression of gene rpoC” value [1, 3] was 0.70 ± 0.39 and the “change in expression of gene rpoD” value [1, 3] was 3.38 ± 0.70. The “change in expression of gene rpoE” value [1, 3] was −2.07 ± 0.62, the “change in expression of gene rpoH” value [1, 3] was 0.71 ± 0.52 and the “change in expression of gene rpoN” value [1, 3] was −1.28 ± 0.49. The “change in expression of gene rpoS” value [1, 3] was 0.53 ± 0.47, the “change in expression of gene rpoZ” value [1, 3] was −1.07 ± 0.53 and the “change in expression of gene spy” value [1, 3] was 4.73 ± 0.87. For the same molecule, the “change in expression of gene tatA” value [1, 3] was −1.05 ± 0.51, the “change in expression of gene tatB” value [1, 3] was −0.93 ± 0.58 and the “change in expression of gene tatC” value [1, 3] was −0.35 ± 1.08. The “change in expression of gene tatD” value [1, 3] was −1.73 ± 1.12, the “change in expression of gene tatE” value [1, 3] was 0.79 ± 0.63 and the “number of genes with significant changes in expression” value ([1]; vs control, Bon Ferroni corrected p-value<0.05) was 414 genes.

B1: MVD: mevalonate diphosphate decarboxylase of Saccharomyces cerevisiae, enzyme and gene/transcript (optimized gene SEQ ID NO:2) (protein)
chain: MTVYTASVTAPVNIATLKYWGKRDTKLNLPTNSSISVTLSQDDLRTLTSAATAPEFERDTLWLNGEPHSIDNERTQNCLRDLRQLRKEMESKDASLPTLSQWKLHIVSENNFPTAAGLASSAAGFAALVSAIAKLYQLPQSTSEISRIARKGSGSACRSLFGGYVAWEMGKAEDGHDSMAVQIADSSDWPQMKACVLVVSDIKKDVSSTQGMQLTVATSELFKERIEHVVPKRFEVMRKAIVEKDFATFAKETMMDSNSFHATCLDSFPPIFYMNDTSKRIISWCHTINQFYGETIVAYTFDAGPNAVLYYLAENESKLFAFIYKLFGSVPGWDKKFTTEQLEAFNHQFESSNFTARELDLELQKDVARVILTQVGSGPQETNESLIDAKTGLPKE
modifications: optimized gene; MVD optimized gene sequence
For B1, the Isobutene production [2] is listed as 6.44±0.95 pmol*min-1 *mg protein-1.
